Measurements published in patent US12338228B2, “NLRP3 modulators” (Innate Tumor Immunity, Inc., priority 2019, dated 2025).

What follows are molecules tested against T1, NLRP3 (Homo sapiens, UniProt Q96P20) (assay: Measurement of IL-1β production in PMA-differentiated THP-1 cells (NLRP3 hIL1β)).
T1 construct: host or cells: PMA-differentiated THP-1 cells
Format: cell-based
Method: Serial dilutions of compounds in DMSO were added to low volume 384 well plates at 100 nl/well using an ECHO 550 acoustic dispenser (Labcyte) to achieve final starting concentration of 10 μM in assay.
THP-1 cells in RPMI (Gibco, 11875) media with 10% FBS at a density of 1×10^6 cell/ml in a T175 flask were treated with a final concentration of phorbol 12-myristate 13-acetate (PMA) (Sigma,P1585) of 50 ng/ml overnight at 37° C. at 5% CO2 for differentiation. Cells were harvested the next day after rinsing well with dPBS using 0.5% trypsin. A cell solution was prepared of 1×10^6 cells/ml for 50,000 cells in 50 μl/well in RPMI media with 2% FBS. Cells were plated using a multichannel pipette onto the compound dilutions in Greiner, 384 well, black clear bottom tissue culture treated plates (781090). The plates were incubated in 37° C. incubator at 5% CO2 for 2 hours.
After the 2 hour incubation, the cell plates were spun in the centrifuge for 5 minutes at 1200 rpm. Using the Felix (CyBio), 8 μl of the supernatant was transferred to 384 well, low volume, white proxy plates. (Perkin Elmer, 6008230). A human IL1beta hTRF kit was used to analyze the supernatant (CISBIO, 62HIL1BPEG). The kit instructions were followed for preparing the IL1Beta standard curve and then the antibodies from the kit were diluted 1:40 rather than 1:20 as kit instructed. Once combined, the antibodies were added across the plates, 5 μl/well. The plates were sealed and incubated at 4° C. overnight. The plates were then read on the Perkin Elmer EnVision at 665/615 nm using the hTRF laser.

T1 sequence (Q96P20 whole entry): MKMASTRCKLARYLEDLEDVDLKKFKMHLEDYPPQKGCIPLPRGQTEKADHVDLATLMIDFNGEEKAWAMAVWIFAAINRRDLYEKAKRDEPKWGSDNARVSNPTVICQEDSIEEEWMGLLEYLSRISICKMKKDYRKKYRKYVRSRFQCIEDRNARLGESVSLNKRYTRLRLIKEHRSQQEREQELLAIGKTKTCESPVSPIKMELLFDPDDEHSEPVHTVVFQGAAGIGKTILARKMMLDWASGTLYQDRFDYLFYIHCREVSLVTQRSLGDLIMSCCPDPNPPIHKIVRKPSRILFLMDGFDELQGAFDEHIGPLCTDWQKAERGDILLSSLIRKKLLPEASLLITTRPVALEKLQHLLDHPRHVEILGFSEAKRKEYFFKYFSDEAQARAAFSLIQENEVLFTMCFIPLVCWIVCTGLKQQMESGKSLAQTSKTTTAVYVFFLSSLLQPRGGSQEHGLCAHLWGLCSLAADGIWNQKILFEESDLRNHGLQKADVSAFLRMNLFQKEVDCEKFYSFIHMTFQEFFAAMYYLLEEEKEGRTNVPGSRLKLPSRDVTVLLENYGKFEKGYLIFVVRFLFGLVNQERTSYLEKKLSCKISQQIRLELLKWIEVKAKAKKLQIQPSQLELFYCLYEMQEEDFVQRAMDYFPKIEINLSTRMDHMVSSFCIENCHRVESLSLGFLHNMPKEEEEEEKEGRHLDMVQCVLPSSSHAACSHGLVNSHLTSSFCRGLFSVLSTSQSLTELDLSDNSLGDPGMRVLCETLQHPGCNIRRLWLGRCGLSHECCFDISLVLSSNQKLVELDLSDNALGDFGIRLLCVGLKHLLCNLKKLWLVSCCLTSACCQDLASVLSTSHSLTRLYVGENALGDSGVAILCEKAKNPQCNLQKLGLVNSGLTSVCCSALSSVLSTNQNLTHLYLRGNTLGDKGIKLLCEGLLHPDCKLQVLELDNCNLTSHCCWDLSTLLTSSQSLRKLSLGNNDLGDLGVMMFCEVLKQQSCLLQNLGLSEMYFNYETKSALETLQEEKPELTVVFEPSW

Molecule | EC50 [nM]
Nc1cc(N[C@H]2CC[C@H](O)C2)c2c(F)cc(-c3cc[nH]n3)cc2n1 [Example 8, (1S,3S)-3-((2-Amino-5-fluoro-7-(1H-pyrazol-3-yl)quinolin-4-yl)amino)cyclopentan-1-ol] | 230
Nc1nc2cc(-c3ccn[nH]3)ccc2c(NCCO)c1C1CCCC1 [Example 14, 2-((2-Amino-3-cyclopentyl-7-(1H-pyrazol-5-yl)quinolin-4-yl)amino)ethan-1-ol] | 260
Nc1cc(N[C@H]2CCOC2)c2c(F)cc(-c3cc[nH]n3)cc2n1 [Example 10, (S)-5-Fluoro-7-(1H-pyrazol-3-yl)-N4-(tetrahydrofuran-3-yl)quinoline-2,4-diamine] | 850
Cc1cc(-c2cc[nH]n2)cc2nc(N)cc(N[C@H]3CC[C@H](O)C3)c12 [Example 5, (1S,3S)-3-((2-Amino-5-methyl-7-(1H-pyrazol-3-yl)quinolin-4-yl)amino)cyclopentan-1-ol] | 4000
Nc1cc(NCc2ccn[nH]2)c2ccc(-c3ccn[nH]3)c(F)c2n1 [Example 11, N4-((1H-Pyrazol-5-yl)methyl)-8-fluoro-7-(1H-pyrazol-5-yl)quinoline-2,4-diamine] | 710
Cc1c(N)nc2cc(-c3ccn[nH]3)ccc2c1NCCCO [Example 12, 3-((2-Amino-3-methyl-7-(1H-pyrazol-5-yl)quinolin-4-yl)amino)propan-1-ol] | 2900
Nc1nc2cc(-c3cc[nH]n3)ccc2c(NCCCO)c1Cl [Example 3, 3-((2-Amino-3-chloro-7-(1H-pyrazol-3-yl)quinolin-4-yl)amino)propan-1-ol] | 350
3-((2-Amino-3-cyclopentyl-7-(1H-pyrazol-5-yl)quinolin-4-yl)amino)propan-1-ol [Example 16] | 260
Nc1cc(NCCCO)c2ccc(-c3cc[nH]n3)c(F)c2n1 [Example 4, 3-((2-Amino-8-fluoro-7-(1H-pyrazol-3-yl)quinolin-4-yl)amino)propan-1-ol] | 330
Nc1nc2cc(-c3cc[nH]n3)ccc2c(N[C@H]2CC[C@H](O)C2)c1F [Example 2, (1 S,3 S)-3-((2-Amino-3-fluoro-7-(1H-pyrazol-3-yl)quinolin-4-yl)amino)cyclopentan-1-ol] | 600
Cc1c(N)nc2cc(-c3ccn[nH]3)ccc2c1NCc1ccn[nH]1 [Example 13, N4-((1H-Pyrazol-5-yl)methyl)-3-methyl-7-(1H-pyrazol-5-yl)quinoline-2,4-diamine] | 450
Nc1nc2cc(-c3cc[nH]n3)ccc2c(NCCCO)c1F [Example 1, 3-((2-Amino-3-fluoro-7-(1H-pyrazol-3-yl)quinolin-4-yl)amino)propan-1-ol] | 160
Nc1nc2cc(-c3ccn[nH]3)ccc2c(NCc2ccccn2)c1C1CCCC1 [Example 15, 3-Cyclopentyl-7-(1H-pyrazol-5-yl)-N4-(pyridin-2-ylmethyl)quinoline-2,4-diamine] | 440
Nc1cc(NCc2cc[nH]n2)c2c(F)cc(-c3cc[nH]n3)cc2n1 [Example 9, N4-((1H-Pyrazol-3-yl)methyl)-5-fluoro-7-(1H-pyrazol-3-yl)quinoline-2,4-diamine] | 290
Cc1cc(-c2cc[nH]n2)cc2nc(N)cc(NCc3cc[nH]n3)c12 [Example 6, N4-((1H-Pyrazol-3-yl)methyl)-5-methyl-7-(1H-pyrazol-3-yl)quinoline-2,4-diamine] | 1400
Nc1cc(NCCCO)c2c(F)cc(-c3cc[nH]n3)cc2n1 [Example 7, 3-((2-Amino-5-fluoro-7-(1H-pyrazol-3-yl)quinolin-4-yl)amino)propan-1-ol] | 230
